SMILES strings stand for the structures. Counter-ions that a name gives are not always drawn. Like-named read-outs stand apart in the source and are kept apart here.

The nature of the data set: Determination of solubility of Nic drug and solid dispersions. Format: physicochemical. Particulars: for solubility at 2 h: 37 °C, thermodynamic from solid. As for the experimental part:
After the drug was dissolved, an equivalent dose of the solid dispersion powder was further added, and oscillated for 2 h. The above operations were repeated until an insoluble solid occurred in the solution.

Take `COC(=O)C1=C(C)NC(C)=C(C(=O)OCCN(C)Cc2ccccc2)C1c1cccc([N+](=O)[O-])c1` (stereo not drawn) [α-Form Nic, nicardipine hydrochloride]: the solubility at 2 h came out at 46 mg/mL (saturated citric acid solution, aqueous buffer, saturated citric acid solution, read-out: Solubility of Saturated Citric Acid Solution mg/ml (37° C.)) and 7.2 mg/mL (water, water, water, read-out: Solubility in Water mg/ml (37° C.)).

Turning to `COC(=O)C1=C(C)NC(C)=C(C(=O)OCCN(C)Cc2ccccc2)C1c1cccc([N+](=O)[O-])c1` (stereo not drawn) [β-Form Nic, nicardipine hydrochloride], where the note is “saturated citric acid solution, hydrochloride”, the “Solubility of Saturated Citric Acid Solution mg/ml (37° C.)” value is 50 mg/mL. The “Solubility in Water mg/ml (37° C.)” value (water, hydrochloride) amounted to 11 mg/mL.

For the origin of these results see patent US20250144030A1, “OSMOTIC PUMP CONTROLLED-RELEASE TABLET OF INSOLUBLE DRUG AND PREPARATION METHOD THEREFOR” (BEIJING WEHAND-BIO PHARMACEUTICAL CO., LTD, priority 2021, published 2025).
